Source: US9677112B2 (priority 2012, dated 2017)
Where two headings read alike, the source gives them in different places. Marks after values point to notes of the source that are not given here.

What was measured:
TEM-1 Bla = TEM-1 Bla (Escherichia coli, UniProt P62593); test: Fluorescence activation of probes by TEM-1 Bla; assay type: biochemical, E. coli; conditions: for change in fluorescence with TEM-1 Bla (in words): TEM-1 Bla 50 nM, 30 minutes
Experimental: (§1) The fluorescent spectra of the probes CDC-1, CDC-3, CDC-OMe and CDC-OEt were recorded before and after BlaC treatment to examine their responses to BlaC.
(§2) The response of CDC-OMe to varying concentrations of BlaC and TEM-1 Bla (at a range of 1 pM to 100 nM) was examined to investigate its specificity (FIG. 1C). 1 nM of BlaC (100 μL) induced a 130% increase in the fluorescence intensity within one hour (F/F0=2.3), while a 100-fold higher TEM-1 Bla concentration (100 nM) could only produce 30% fluorescence enhancement (F/F0=1.3).
(§3) Even at a more than 1000-fold higher concentration, the fluorescence signal of CDG-OMe generated by TEM-1 Bla (400 nM) was just 30% of that by BlaC (400 pM) in 300 mins, confirming its high selectivity for BlaC (FIG. 5C). Less than 1 fmol of BlaC was readily detectable with CDG-OMe after 8 hours incubation (FIG. 5D).

BlaC-expressing E. coli = assay type: cell-based
BlaC [1] = target: T1, BlaC (Mycobacterium tuberculosis, UniProt P9WKD3); conditions: for Km: read-out: BlaC Km
BlaC [2] = target: T1, BlaC; test: Fluorescence activation of probes by BlaC; assay type: biochemical
Experimental: as §1, §2, §3

[3] = system: TEM-1 Bla-expressing E. coli; assay type: cell-based
[4] = system: M. tuberculosis var. bovis strain BCG; assay type: cell-based, Mycobacterium tuberculosis var. bovis strain BCG
[5] = system: COc1ccc(-c2c3ccc(=O)cc-3oc3cc(OCc4ccc(OCC5=C(C(=O)O)N6C(=O)[C@@H](NC(=O)Cc7ccccc7)[C@H]6SC5)cc4)ccc23)c(C)c1; test: purified protein, by the assay type; conditions: 22.0 °C
[6] = system: COc1ccc(-c2c3ccc(=O)cc-3oc3cc(OCc4ccc(OCC5=C(C(=O)O)N6C(=O)[C@](NC(=O)Cc7ccccc7)(OC)[C@H]6SC5)cc4)ccc23)c(C)c1; test: purified protein, by the assay type; conditions: 22.0 °C
[7] = system: O=C(Cc1ccccc1)N[C@@H]1C(=O)N2C(C(=O)O)=C(COc3ccc4ccc(=O)oc4c3)C[S@+]([O-])[C@H]12; test: purified protein, by the assay type; conditions: pH 7.4; 22.0 °C
[8] = 1 nM of BlaC (100 μL), within one hour

TEM-1 Bla, sequence (P62593 24-286 limits assumed): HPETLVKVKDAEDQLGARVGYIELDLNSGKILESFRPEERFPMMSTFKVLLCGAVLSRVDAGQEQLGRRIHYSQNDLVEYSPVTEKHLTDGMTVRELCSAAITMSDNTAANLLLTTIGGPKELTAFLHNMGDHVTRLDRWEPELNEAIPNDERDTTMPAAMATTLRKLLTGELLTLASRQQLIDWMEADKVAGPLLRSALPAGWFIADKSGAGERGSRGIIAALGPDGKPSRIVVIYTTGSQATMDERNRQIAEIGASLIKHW
T1 sequence (P9WKD3 35-307 limits assumed): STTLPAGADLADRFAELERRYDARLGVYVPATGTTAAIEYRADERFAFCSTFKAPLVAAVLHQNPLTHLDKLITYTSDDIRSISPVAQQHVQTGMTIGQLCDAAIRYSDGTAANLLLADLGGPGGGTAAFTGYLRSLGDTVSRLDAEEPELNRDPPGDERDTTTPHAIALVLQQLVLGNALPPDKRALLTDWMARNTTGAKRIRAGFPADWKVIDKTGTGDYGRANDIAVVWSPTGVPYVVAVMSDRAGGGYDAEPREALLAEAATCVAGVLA

O=C(Cc1ccccc1)N[C@@H]1C(=O)N2C(C(=O)O)=C(COc3ccc4ccc(=O)oc4c3)CS[C@H]12 [CDC-1, (6R,7R)-8-Oxo-3-((2-oxo-2H-chromen-7-yloxy)methyl)-7-(2-phenylacetamido)-5-thia-1-azabicyclo[4.2.0]oct-2-ene-2-carboxylic acid]
change in fluorescence with TEM-1 Bla (in words) (TEM-1 Bla): rapid fluorescence | signal with TEM-1 Bla compared with BlaC (in words) (TEM-1 Bla; serially diluted enzymes, 1 hour): stronger signal than with BlaC | fluorescence in E. coli expressing no β-lactamase, TEM-1 Bla or BlaC (in words) (BlaC-expressing E. coli): present in E. coli expressing either TEM-1 Bla or BlaC | BlaC kcat (BlaC [1]): 13 s⁻¹ | Km (BlaC [1]): 63 µM

CCN1CCN(C(=O)N[C@@H](C(=O)N[C@@H]2C(=O)N3C(C(=O)O)=C(COc4ccc5ccc(=O)oc5c4)CS[C@H]23)c2ccccc2)C(=O)C1=O [CDC-3, (6R,7R)-7-((R)-2-(4-Ethyl-2,3-dioxopiperazine-1-carboxamido)-2-phenylacetamido)-8-oxo-3-((2-oxo-2H-chromen-7-yloxy)methyl)-5-thia-1-azabicyclo[4.2.0]oct-2-ene-2-carboxylic acid]
change in fluorescence with TEM-1 Bla (in words) (TEM-1 Bla): rapid fluorescence | BlaC kcat (BlaC [1]): 6 s⁻¹ | Km (BlaC [1]): 69 µM

CC(=O)N[C@@H]1C(=O)N2C(C(=O)O)=C(COc3ccc4ccc(=O)oc4c3)CS[C@H]12 [CDC-4, (6R,7R)-7-Acetamido-8-oxo-3-(((2-oxo-2H-chromen-7-yl)oxy)methyl)-5-thia-1-azabicyclo[4.2.0]oct-2-ene-2-carboxylic acid]
BlaC kcat (BlaC [1]): 10 s⁻¹ | Km (BlaC [1]): 148 µM

CO[C@@]1(NC(C)=O)C(=O)N2C(C(=O)O)=C(COc3ccc4ccc(=O)oc4c3)CS[C@@H]21 [CDC-5, (6R,7S)-7-Acetamido-7-methoxy-8-oxo-3-(((2-oxo-2H-chromen-7-yl)oxy)methyl)-5-thia-1-azabicyclo[4.2.0]oct-2-ene-2-carboxylic acid]
BlaC kcat (BlaC [1]): 0.52 s⁻¹ | Km (BlaC [1]): 139 µM

CCO[C@@]1(NC(=O)Cc2ccccc2)C(=O)N2C(C(=O)O)=C(COc3ccc4ccc(=O)oc4c3)CS[C@@H]21 [CDC-OEt, (6R,7S)-7-Ethoxy-8-oxo-3-((2-oxo-2H-chromen-7-yloxy)methyl)-7-(2-phenylacetamido)-5-thia-1-azabicyclo[4.2.0]oct-2-ene-2-carboxylic acid]
fluorescence enhancement by BlaC (in words) (BlaC [2]; within 30 minutes, BlaC 50 nM): only slight fluorescence enhancement | BlaC kcat (BlaC [1]): 0.026 s⁻¹ | further reduction in turnover number (BlaC) relative to CDC-OMe (BlaC [1]): 40 fold | Km (BlaC [1]): 131 µM

CO[C@@]1(NC(=O)Cc2ccccc2)C(=O)N2C(C(=O)O)=C(COc3ccc4ccc(=O)oc4c3)CS[C@@H]21 [CDC-OMe, (6R,7S)-7-Methoxy-8-oxo-3-((2-oxo-2H-chromen-7-yloxy)methyl)-7-(2-phenylacetamido)-5-thia-1-azabicyclo[4.2.0]oct-2-ene-2-carboxylic acid]
F/F0 (turn-on ratio) (BlaC [2]; [8]): 2.3 | increase in the fluorescence intensity (BlaC [2]; [8]): 130% | enhancement of fluorescence intensity by BlaC (BlaC [2]; in less than 30 minutes, BlaC 50 nM): more than 30 fold | change in fluorescence with TEM-1 Bla (in words) (TEM-1 Bla): no change in the fluorescence intensity | F/F0 (turn-on ratio) (TEM-1 Bla; TEM-1 Bla 100 nM, one hour): 1.3 | fluorescence enhancement (TEM-1 Bla; TEM-1 Bla 100 nM, one hour): 30% | fluorescence in E. coli expressing no β-lactamase, TEM-1 Bla or BlaC (in words) (BlaC-expressing E. coli): strong fluorescence was observed only with E. coli expressing BlaC | BlaC kcat (BlaC [1]): 1 s⁻¹ | catalytic efficiency (kcat/Km) for BlaC over TEM-1 Bla (BlaC [1]): over 1,000 fold | Km (BlaC [1]): 47 µM

COc1ccc(-c2c3ccc(=O)cc-3oc3cc(OCc4ccc(OCC5=C(C(=O)O)N6C(=O)[C@@H](NC(=O)Cc7ccccc7)[C@H]6SC5)cc4)ccc23)c(C)c1 [CDG-1, (6R,7R)-3-((4-(((9-(4-Methoxy-2-methylphenyl)-3-oxo-3H-xanthen-6-yl)oxy)methyl)phenoxy)methyl)-8-oxo-7-(2-phenylacetamido)-5-thia-1-azabicyclo[4.2.0]oct-2-ene-2-carboxylic acid]
number of BlaC-carrying E. coli detected (BlaC-expressing E. coli): ~10,000 | number of TEM-1 Bla-carrying E. coli detected [3]: approximately 1,000 | BlaC kcat (BlaC [1]; pH 6.6): (1.0) s^−1

COc1ccc(-c2c3ccc(=O)cc-3oc3cc(OCc4ccc(OCC5=C(C(=O)O)N6C(=O)[C@](NC(=O)Cc7ccccc7)(OC)[C@H]6SC5)cc4)ccc23)c(C)c1 [CDG-OMe, (6R,7S)-7-Methoxy-3-((4-(((9-(4-methoxy-2-methylphenyl)-3-oxo-3H-xanthen-6-yl)oxy)methyl)phenoxy)methyl)-8-oxo-7-(2-phenylacetamido)-5-thia-1-azabicyclo[4.2.0]oct-2-ene-2-carboxylic acid]
amount of BlaC readily detectable (BlaC [2]; after 8 hours incubation): Less than 1 fmol | increase of fluorescence emission at 520 nm upon treatment with BlaC (BlaC [2]; excitation 490 nm): up to 218 fold | fluorescence signal generated by TEM-1 Bla relative to that by BlaC (TEM-1 Bla; TEM-1 Bla 400 nM vs BlaC 400 pM, 300 mins): 30% | signal from BlaC-expressing E. coli (in words) (BlaC-expressing E. coli): strong fluorescent signal | signal from TEM-1 Bla-expressing E. coli (in words) [3]: no detectable signal | number of BCG detected ([4]; 20 min incubation): 2×10^5 CFU | number of BCG detected ([4]; 438 mins (7 hours) incubation): 10^3 CFU | increase of kcat/Km for BlaC relative to CDC-OMe (BlaC [1]): 11 fold | BlaC kcat (BlaC [1]; pH 6.6): (0.8) s^−1

BlaC (Mycobacterium tuberculosis H37Rv)
Km ([5]; pH 6.6): (2.1)^c μM | Km ([5]; pH 7.4): 2.1 µM | kcat ([5]; pH 7.4): 3.7 s⁻¹ | kcat/Km ([5]; pH 7.4): 1.8 × 10^6 s^−1M^−1 | Km ([6]; pH 6.6): (4.7)^c μM | Km ([6]; pH 7.4): 2.9 µM | kcat ([6]; pH 7.4): 0.7 s⁻¹ | kcat/Km ([6]; pH 7.4): 2.4 × 10^5 s^−1M^−1 | Km [7]: 136 µM | kcat [7]: 0.51 s⁻¹ | kcat/Km [7]: 3.8 × 10^3 s^−1M^−1
